Earlier results in patent US6955766B2, “Method for reducing harmful organisms in currents of water” (priority 1999, dated 2005).

System: zebra mussels
Conditions: batchwise treatment of water

**Q.** For `CC(=O)OO` [peroxyacetic acid], which “concentration necessary to achieve an acceptable mortality rate of the mussels in a sufficiently short time” value is on record?
**A.** Its value is at least 10 mg/L.
